target: CDK5 (Homo sapiens (Human), UniProt Q00535); experiment: CDK5 kinase assay (Nanosyn, Caliper microfluidic); format: biochemical; conditions: ATP at Km; 12-point dose-response
Method: Selected compounds disclosed herein were tested in kinase assays by Nanosyn (Santa Clara, Calif.) to determine their inhibitory effect on these CDKs. The assays were performed using microfluidic kinase detection technology (Caliper Assay Platform). The compounds were tested in 12-point dose-response format in singlicate at Km for ATP.

CDK5, sequence (Q00535 whole entry): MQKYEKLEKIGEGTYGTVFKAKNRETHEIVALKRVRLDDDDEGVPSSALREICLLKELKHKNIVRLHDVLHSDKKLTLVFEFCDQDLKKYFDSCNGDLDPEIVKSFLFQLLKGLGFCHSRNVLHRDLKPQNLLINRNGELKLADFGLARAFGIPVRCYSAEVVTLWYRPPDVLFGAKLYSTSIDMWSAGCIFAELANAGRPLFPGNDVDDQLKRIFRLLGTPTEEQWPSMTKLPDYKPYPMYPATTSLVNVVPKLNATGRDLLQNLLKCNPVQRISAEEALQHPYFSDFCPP
CDK5, sequence (Q15078 whole entry partner): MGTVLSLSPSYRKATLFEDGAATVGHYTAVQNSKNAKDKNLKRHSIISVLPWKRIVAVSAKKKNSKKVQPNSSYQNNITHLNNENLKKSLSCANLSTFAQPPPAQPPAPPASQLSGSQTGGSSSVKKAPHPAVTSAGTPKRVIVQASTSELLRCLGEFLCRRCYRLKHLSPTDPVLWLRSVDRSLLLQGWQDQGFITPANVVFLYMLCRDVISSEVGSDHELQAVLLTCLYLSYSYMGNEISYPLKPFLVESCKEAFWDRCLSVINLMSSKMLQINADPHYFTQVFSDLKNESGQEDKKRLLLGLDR

| IC50 [nM] | SMILES |
| --- | --- |
| 0.68 | NS(=O)(=O)c1ccc(Nc2ncc3cc4n(c3n2)C2(CCCCC2)C(=O)NC4O)cc1 (centres unmarked) [Compound 1, 4-((6′-hydroxy-8′-oxo-7′,8′-dihydro-6′H-spiro[cyclohexane-1,9′-pyrazino[1′,2′:1,5]pyrrolo[2,3-d]pyrimidin]-2'-yl)amino)benzenesulfonamide] |
| 1.4 | NS(=O)(=O)c1ccc(Nc2ncc3cc4n(c3n2)C2(CCCCC2)CC(=O)N4)cc1 [Compound 2, 4-((7′-oxo-7′,8′-dihydro-6′H-spiro[cyclohexane-1,9′-pyrrolo[1,5-a:2,3-d′]dipyrimidin]-2′-yl)amino)benzenesulfonamide] |
| 17 | NS(=O)(=O)c1ccc(Nc2ncc3cc4n(c3n2)C2(CCCCC2)C(=O)NN4)cc1 [Compound 3, 4-((3′-oxo-2′,3′-dihydro-1′H-spiro[cyclohexane-1,4′-pyrimido[5′,4′:4,5]pyrrolo[2,1-c][1,2,4]triazin]-7′-yl)amino)benzenesulfonamide] |
| 6 | NS(=O)(=O)c1ccc(Nc2ncc3cc4n(c3n2)C2(C=NN4)CCCCC2)cc1 [Compound 4, 4-((1′H-spiro[cyclohexane-1,4′-pyrimido[5′,4′:4,5]pyrrolo[2,1-c][1,2,4]triazin]-7′-yl)amino)benzenesulfonamide] |
| 30 | CN1N=CC2(CCCCC2)n2c1cc1cnc(Nc3ccc(S(N)(=O)=O)cc3)nc12 [Compound 5, 4-((1′-methyl-1′H-spiro[cyclohexane-1,4′-pyrimido[5′,4′:4,5]pyrrolo[2,1-c][1,2,4]triazin]-7′-yl)amino)benzenesulfonamide] |
| 120 | CN1NC(=O)C2(CCCCC2)n2c1cc1cnc(Nc3ccc(S(N)(=O)=O)cc3)nc12 [Compound 12, 4-((1′-methyl-3′-oxo-2′,3′-dihydro-1′H-spiro[cyclohexane-1,4′-pyrimido[5′,4′:4,5]pyrrolo[2,1-c][1,2,4]triazin]-7′-yl)amino)benzenesulfonamide] |
| 16 | NS(=O)(=O)c1ccc(Nc2ncc3cc4n(c3n2)C2(CCCCC2)C(=O)N[C@H]4CF)cc1 [Compound 18, (R)-4-((6′-(fluoromethyl)-8′-oxo-7′,8′-dihydro-6′H-spiro[cyclohexane-1,9′-pyrazino[1′,2′:1,5]pyrrolo[2,3-d]pyrimidin]-2′-yl)amino)benzenesulfonamide] |
| 50 | C[C@@H]1NC(=O)C2(CCCCC2)n2c1cc1cnc(Nc3ccc(S(N)(=O)=O)cc3)nc12 [Compound 19, (S)-4-((6′-methyl-8′-oxo-7′,8′-dihydro-6′H-spiro[cyclohexane-1,9′-pyrazino[1′,2′:1,5]pyrrolo[2,3-d]pyrimidin]-2′-yl)amino)benzenesulfonamide] |
| 12 | NS(=O)(=O)c1ccc(Nc2ncc3cc4n(c3n2)C2(CCCCC2)C(=O)N[C@@H]4CF)cc1 [Compound 23, (S)-4-((6′-(fluoromethyl)-8′-oxo-7′,8′-dihydro-6′H-spiro[cyclohexane-1,9′-pyrazino[1′2′:1,5]pyrrolo[2,3-d]pyrimidin]-2′-yl)amino)benzenesulfonamide] |
| 2 | CC1C(=O)Nc2cc3cnc(Nc4ccc(S(N)(=O)=O)cc4)nc3n2C12CCCCC2 (centres unmarked) [Compound 42, 4-((8′-methyl-7′-oxo-7′,8′-dihydro-6′H-spiro[cyclohexane-1,9′-pyrrolo[1,5-a:2,3-d′]dipyrimidin]-2′-yl)amino)benzenesulfonamide] |
| 15 | CC1C(=O)N(C)c2cc3cnc(Nc4ccc(S(N)(=O)=O)cc4)nc3n2C12CCCCC2 (centres unmarked) [Compound 43, 4-((6′,8′-dimethyl-7′-oxo-7′,8′-dihydro-6′H-spiro[cyclohexane-1,9′-pyrrolo[1,5-a:2,3-d′]dipyrimidin]-2′-yl)amino)benzenesulfonamide] |
| 48 | CC1=NNc2cc3cnc(Nc4ccc(S(N)(=O)=O)cc4)nc3n2C12CCCCC2 [Compound 45, 4-((3′-methyl-1′H-spiro[cyclohexane-1,4′-pyrimido[5′,4′:4,5]pyrrolo[2,1-c][1,2,4]triazin]-7′-yl)amino)benzenesulfonamide] |
| 11 | CC1=NN(C)c2cc3cnc(Nc4ccc(S(N)(=O)=O)cc4)nc3n2C12CCCCC2 [Compound 46, 4-((1′,3′-dimethyl-1′H-spiro[cyclohexane-1,4′-pyrimido[5′,4′:4,5]pyrrolo[2,1-c][1,2,4]triazin]-7′-yl)amino)benzenesulfonamide] |
| 105 | CN1CCN(S(=O)(=O)c2ccc(Nc3ncc4cc5n(c4n3)C3(CCCCC3)C(=O)NN5)cc2)CC1 [Compound 49, 7′-((4-((4-methylpiperazin-1-yl)sulfonyl)phenyl)amino)-1′,2′-dihydro-3′H-spiro[cyclohexane-1,4′-pyrimido[5′,4′:4,5]pyrrolo[2,1-c][1,2,4]triazin]-3′-one] |
| 71 | CN1CCN(S(=O)(=O)c2ccc(Nc3ncc4cc5n(c4n3)C3(CCCCC3)C(=O)NC5O)cc2)CC1 (centres unmarked) [Compound 50, 6′-hydroxy-2′-((4-((4-methylpiperazin-1-yl)sulfonyl)phenyl)amino)-6′,7′-dihydro-8′H-spiro[cyclohexane-1,9′-pyrazino[1′,2′:1,5]pyrrolo[2,3-d]pyrimidin]-8′-one] |
| 7 | CN1CCN(S(=O)(=O)c2ccc(Nc3ncc4cc5n(c4n3)C3(CCCCC3)CC(=O)N5)cc2)CC1 [Compound 51, 2′-((4-((4-methylpiperazin-1-yl)sulfonyl)phenyl)amino)-6′H-spiro[cyclohexane-1,9′-pyrrolo[1,5-a:2,3-d′]dipyrimidin]-7′(8′H)-one] |
| 84 | CN1CCN(C(=O)c2ccc(Nc3ncc4cc5n(c4n3)C3(CCCCC3)C(=O)NN5)cc2)CC1 [Compound 52, 7′-((4-(4-methylpiperazine-1-carbonyl)phenyl)amino)-1′,2′-dihydro-3′H-spiro[cyclohexane-1,4′-pyrimido[5′,4′:4,5]pyrrolo[2,1-c][1,2,4]triazin]-3′-one] |
| 4 | CN1CCN(C(=O)c2ccc(Nc3ncc4cc5n(c4n3)C3(CCCCC3)C(=O)NC5O)cc2)CC1 (centres unmarked) [Compound 53, 6′-hydroxy-2′-((4-(4-methylpiperazine-1-carbonyl)phenyl)amino)-6′,7′-dihydro-8′H-spiro[cyclohexane-1,9′-pyrazino[1′,2′:1,5]pyrrolo[2,3-d]pyrimidin]-8′-one] |
| 3 | CN1CCN(C(=O)c2ccc(Nc3ncc4cc5n(c4n3)C3(CCCCC3)CC(=O)N5)cc2)CC1 [Compound 54, 2′-((4-(4-methylpiperazine-1-carbonyl)phenyl)amino)-6′H-spiro[cyclohexane-1,9′-pyrrolo[1,5-a:2,3-d′]dipyrimidin]-7′(8′H)-one] |
| 1 | O=C1NCC2(CCCCC2)n2c1cc1cnc(Nc3ccc(C(=O)N4CCNCC4)cc3)nc12 [Compound 55, 2′-((4-(piperazine-1-carbonyl)phenyl)amino)-7′,8′-dihydro-6′H-spiro[cyclohexane-1,9′-pyrazino[1′,2′:1,5]pyrrolo[2,3-d]pyrimidin]-6′-one] |
| 6 | CC1C(=O)Nc2cc3cnc(Nc4ccc(S(=O)(=O)N5CCN(C)CC5)cc4)nc3n2C12CCCCC2 (centres unmarked) [Compound 59, 8′-methyl-2′-((4-((4-methylpiperazin-1-yl)sulfonyl)phenyl)amino)-6′H-spiro[cyclohexane-1,9′-pyrrolo[1,5-a:2,3-d′]dipyrimidin]-7′(8′H)-one] |
| 72 | O=C(c1ccc(Nc2ncc3cc4n(c3n2)C2(CCCCC2)C(=O)NN4)cc1)N1CCNCC1 [Compound 61, 7′-((4-(piperazine-1-carbonyl)phenyl)amino)-1′,2′-dihydro-3′H-spiro[cyclohexane-1,4′-pyrimido[5′,4′:4,5]pyrrolo[2,1-c][1,2,4]triazin]-3′-one] |
| 131 | CN(C)C(=O)c1ccc(Nc2ncc3cc4n(c3n2)C2(CCCCC2)C(=O)NN4)cc1 [Compound 62, N,N-dimethyl-4-((3′-oxo-2′,3′-dihydro-1′H-spiro[cyclohexane-1,4′-pyrimido[5′,4′:4,5]pyrrolo[2,1-c][1,2,4]triazin]-7′-yl)amino)benzamide] |
| 78 | NC(=O)c1ccc(Nc2ncc3cc4n(c3n2)C2(CCCCC2)C(=O)NN4)cc1 [Compound 63, 4-((3′-oxo-2′,3′-dihydro-1′H-spiro[cyclohexane-1,4′-pyrimido[5′,4′:4,5]pyrrolo[2,1-c][1,2,4]triazin]-7′-yl)amino)benzamide] |
| 65 | CNC(=O)c1ccc(Nc2ncc3cc4n(c3n2)C2(CCCCC2)C(=O)NN4)cc1 [Compound 64, N-methyl-4-((3′-oxo-2′,3′-dihydro-1′H-spiro[cyclohexane-1,4′-pyrimido[5′,4′:4,5]pyrrolo[2,1-c][1,2,4]triazin]-7′-yl)amino)benzamide] |
| 92 | O=C(c1ccc(Nc2ncc3cc4n(c3n2)C2(CCCCC2)C(=O)NN4)cc1)N1CCOCC1 [Compound 74, 7′-((4-(morpholine-4-carbonyl)phenyl)amino)-1′,2′-dihydro-3′H-spiro[cyclohexane-1,4′-pyrimido[5′,4′:4,5]pyrrolo[2,1-c][1,2,4]triazin]-3′-one] |
